Our source for the IC50, Kd and GI50 values is US8609688B2, “Substituted imidazopyridinyl-aminopyridine compounds” (ArQule, Inc., priority 2011, dated 2013).

The structures appear in SMILES notation.

The target in experiment [1] is T1, Full-length inactive AKT1 (Homo sapiens (Human), UniProt P31749). The experiment can be described thus: Inactive Akt Alpha Screen Assay. The settings on record: 8 nM inactive Akt1 activated by PDK1 and MAPKAPK2, lipid vesicles, 50 μM ATP, biotinylated crosstide; read-out: Akt1 biochemical assay IC50 AlphaScreen crosstide. The method, then:
AKT1 activity was assayed using the GSK3-derived biotinylated peptide substrate, crosstide (biotin-[…]), and AlphaScreen™ (Amplified Luminescent Proximity Homogeneous Assay) technology. AKT1 activation was achieved by the addition of the activating kinases PDK1 and MAPKAPK2, lipid vesicles, and ATP. The extent of peptide phosphorylation was determined using a phospho-AKT substrate antibody and acceptor beads conjugated to Protein A and donor beads conjugated to streptavidin that bind to the biotin on the peptide. Excitation of the donor beads converted ambient oxygen to excited singlet oxygen which, when in close proximity to acceptor beads, reacted with acceptor beads resulting in signal amplification.
After a 20 minute pre-incubation at room temperature, the kinase reaction was initiated by the addition of 5 μL of an activation mixture diluted in assay buffer containing biotinylated crosstide, PDK1, MAPKAPK2, DOPS/DOPC, PtdIns(3,4,5)P3, and ATP for final concentrations of 60 nM biotinylated crosstide, 0.1 nM PDK1, 0.7 nM MK2, 5.5 μM DOPS, 5.5 μM DOPC, 0.5 μM PtdIns(3,4,5)P3, and 50 μM ATP. The plates were incubated for 30 minutes at room temperature, and then stopped in the dark by the addition of 10 μL stop/detection mixture prepared in assay buffer containing EDTA, AlphaScreen™ Streptavidin Donor and Protein A Acceptor beads, and phospho-AKT substrate antibody for final concentrations of 10 mM EDTA, 500 ng/well of both AlphaScreen™ Streptavidin Donor beads and Protein A Acceptor beads, and phospho-AKT substrate antibody at a final dilution of 1:350. Assay plates were incubated for 90 minutes at room temperature in the dark, and the plates were read on a Perkin Elmer Envision Multilabel plate reader (excitation wavelength: 640 nm, emission wavelength: 570 nm). […]
On the technique in general: In Alpha technology, singlet oxygen from a donor bead excites a nearby acceptor bead.

Experiment [2] deals with T1, Full-length inactive AKT1. The experiment can be described thus: Thermal Shift Assay (protein-ligand binding). The settings on record: Kd at 25° C. calculated using constant ligand binding enthalpy −15 kcal/mol; 15 μM compound, ANS dye. The method, then: Binding analysis. Protein-ligand binding was identified with the thermal shift assay which is based on the ligand-induced stabilization of the protein tertiary structure. The thermal stability of the ligand-Akt1 complex was assessed by subjecting the complex to a set temperature gradient and by comparison of the meltion temperature of the Akt1-ligand complex with the melting temperature of the protein alone. Protein unfolding was monitored by the fluorescence readout of an environmentally sensitive fluorescent dye, 1-anilinonaphthalene-8-sulfonic acid (ANS). […] The PCR plate was placed into a RT-PCR instrument and a temperature gradient was performed, increasing from 27 to 80° C., at 1° C./30 sec heat rate with a dwell time of 20 sec. The change in ANS fluorescence was measured using the filter set of 475 nm/525 nm excitation/emission.

Experiment [3] deals with cells. The experiment can be described thus: Cell proliferation / viability GI50 (MTS assay or ATP quantitation assay). In kind it is cell-based. The settings on record: 72 hours treatment; cell line and assay (MTS or ATP quantitation) not stated. The method, then:
Cell proliferation analysis. Cell survival was determined by the MTS assay. Briefly, cells were plated in a 96-well plate at 2,000-10,000 cells per well, cultured for 24 hours in complete growth medium, and then treated with various drugs and drug combinations for 72 hours. MTS was added and incubated for 4 hour, followed by assessment of cell viability using the microplate reader at 570 nm. Data were normalized to untreated controls and analyzed with Microsoft Excel.
Cell viability analysis. Cell viability was determined by the ATP quantitation assay. Briefly, cells were plated in a 96-well plate at 2,000-10,000 cells per well, cultured for 24 hours in complete growth medium, and then treated with various drugs or combination of drugs for 72 hours. CellTiter-Glo® reagent was added and incubated at room temperature for 10 minutes, followed by assessment of cell viability using a luminometer. Data were normalized to untreated controls and analyzed with Microsoft Excel.
In general terms: Tetrazolium dyes change colour on reduction, which living cells bring about.

Experiment [4] concerns Phospho-Akt (S473). The experiment is described as follows: Cell ELISA Assay, Phospho-Akt detection. It is filed as cell-based. The settings on record: cells treated for 1 hour, cell line not stated. The method, then:
Phospho-Akt detection analysis. Phospho-Akt (S473) was detected using cell ELISA. Briefly, cells were plated in a 96-well plate at 7,000-10,000 cells per well, cultured for 2-3 days in complete growth medium, and then treated with various drugs or combinations of drugs for 1 hour. The cells were fixed with ice-cold methanol, and washed with TBS supplemented with 1% H2O2. Phospho-Akt (S473) was probed with corresponding rabbit antibody as a primary antibody, and horseradish peroxidase conjugated goat anti-rabbit IgG. After treatment with SuperSignal® ELISA for 15 minutes, the detection was performed using a luminometer. Data were normalized to untreated controls and analyzed with Microsoft Excel.

T1 sequence (P31749 whole entry): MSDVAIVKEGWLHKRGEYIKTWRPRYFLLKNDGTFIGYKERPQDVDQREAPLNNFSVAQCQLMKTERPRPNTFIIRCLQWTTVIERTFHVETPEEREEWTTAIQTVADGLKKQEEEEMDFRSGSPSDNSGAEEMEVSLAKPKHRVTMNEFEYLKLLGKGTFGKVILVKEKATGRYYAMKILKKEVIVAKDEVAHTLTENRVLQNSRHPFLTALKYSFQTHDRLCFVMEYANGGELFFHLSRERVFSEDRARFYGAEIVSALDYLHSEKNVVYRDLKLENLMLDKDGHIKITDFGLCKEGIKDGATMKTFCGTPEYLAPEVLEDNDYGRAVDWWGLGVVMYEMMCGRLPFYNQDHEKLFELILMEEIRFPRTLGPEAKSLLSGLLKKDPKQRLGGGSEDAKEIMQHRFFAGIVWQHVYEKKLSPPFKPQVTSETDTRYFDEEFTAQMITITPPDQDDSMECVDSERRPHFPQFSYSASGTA

Usually IC50 stands for the concentration that gives 50% inhibition. As a reminder, the Kd is the equilibrium constant for the complex coming apart. The term GI50 denotes the concentration that inhibits growth by half. On to `CCC(=O)N1CCN(c2cccc(-c3ccc4nc(-c5cccnc5N)n(-c5ccc(C6(N)CCC6)cc5)c4n3)c2)CC1` [Cmpd 13, 1-(4-(3-(3-(4-(1-aminocyclobutyl)phenyl)-2-(2-aminopyridin-3-yl)-3H-imidazo[4,5-b]pyridin-5-yl)phenyl)piperazin-1-yl)propan-1-one], for which the half-maximal inhibitory concentration (IC50) came to 2.15 nM in experiment [1] and 9 nM in experiment [4]. The equilibrium dissociation constant (Kd) in experiment [2] is 1.4 nM. Besides, in experiment [3], the concentration for 50% growth inhibition (GI50) was 335000 nM.

As to `Nc1ncccc1-c1nc2ccc(-c3cccc(N4CCN(C(=O)C5CC5)CC4)c3)nc2n1-c1ccc(C2(N)CCC2)cc1` [Cmpd 14, (4-(3-(3-(4-(1-aminocyclobutyl)phenyl)-2-(2-aminopyridin-3-yl)-3H-imidazo[4,5-b]pyridin-5-yl)phenyl)piperazin-1-yl)(cyclopropyl)methanone], the IC50 worked out at 1.84 nM in experiment [1] and 11 nM in experiment [4]. The dissociation constant (Kd) in experiment [2] is 1.1 nM. In experiment [3], the 50% growth inhibitory concentration (GI50) came to 296000 nM.
